In test [1] the test system is Mycobacterium tuberculosis extensively drug-resistant (XDR) strain. In words: microbe, parasite or virus in culture. The test is classed as cell-based. The conditions noted are these: 192 h, read-out: Anti-tubercular activity against Mycobacterium tuberculosis (MIC), XDR.
Test [2] has as its system Mycobacterium tuberculosis multidrug-resistant (MDR) strain. In words: microbe, parasite or virus in culture. The conditions noted are these: 192 h, read-out: Anti-tubercular activity against Mycobacterium tuberculosis (MIC), MDR. The test is classed as cell-based.

For one molecule, MIC results are on record in patent US12202801B1 (priority 2023, dated 2025).

As to `N#Cc1ccc(C(=O)C[n+]2ccc(C#N)cc2)cc1.[Br-]` [Compound 3f, 4-Cyano-1-(2-(4-cyanophenyl)-2-oxoethyl)pyridin-1-ium bromide], the MIC in test [1] turned out to be 32 µg/mL; in test [2], 4 µg/mL.
